From US6288261A, “Inhibitors of matrix metalloproteinases” (Abbott Laboratories, priority 1999, dated 2001)

Target: T1, recombinant truncated stromelysin (human sequence) (Homo sapiens, UniProt P08254)
T1 construct: made in house; host or cells: E. coli
Assay: Determination of Stromelysin Inhibition
Format: biochemical
Settings: recombinant truncated human stromelysin produced in E. coli
Procedure: Determination of Stromelysin Inhibition
The efficacy of the compounds of this invention as matrix metalloproteinase inhibitors was determined by measuring the inhibition of stromelysin. The inhibition of stromelysin by the compounds of this invention was determined as follows: recombinant truncated stromelysin (human sequence) produced in E. coli was prepared by expression and purification of the protein as described by Ye et al, Biochemistry, 1992, 31, 11231-11235. The IC50 values were determined as described in Steiman et al, Bioorganic and Medicinal Chemistry Letters, (1998), 8, 2087-2092 (footnote 13).

T1 sequence (P08254 100-273 limits assumed): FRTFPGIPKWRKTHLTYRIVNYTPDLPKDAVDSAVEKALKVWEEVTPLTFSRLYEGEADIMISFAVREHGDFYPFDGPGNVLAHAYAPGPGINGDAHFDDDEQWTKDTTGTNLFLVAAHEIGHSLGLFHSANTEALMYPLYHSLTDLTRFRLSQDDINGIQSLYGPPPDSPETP

Row | Compound | IC50
1 | COc1ccc(-c2ccc(S(=O)(=O)CCOc3ccc4ccccc4c3C(=O)NO)cc2)cc1 [Example 7, N-hydroxy-2-[2-[(4'-methoxy[1,1'-biphenyl]-4-vl)sulfonyl]ethoxy]-1-naphthalenecarboxamide] | 460 nM
2 | O=C(NO)c1c(CCS(=O)(=O)c2ccc(-c3ccc(Cl)cc3)cc2)ccc2ccccc12 [Example 8, 2-[2-[(4'-chloro[1,1'-biphenyl]-4-yl)sulfonyl]ethyl]-N-hydroxy-1-naphthalenecarboxamide] | 3700 nM
3 | O=C(NO)c1c(CNS(=O)(=O)c2ccc(-c3ccc(OC(F)(F)F)cc3)cc2)ccc2ccccc12 [Example 9] | 690 nM
4 | COc1ccc(-c2ccc(C(=O)CCc3ccc4ccccc4c3C(=O)NO)cc2)cc1 [Example 12, N-hydroxy-2-[3-(4'-methoxy[1,1'-biphenyl]-4-yl)-3-oxopropyl]-1-naphthalenecarboxamide] | 450 nM
5 | O=C(NO)c1c(CCOc2ccc(-c3ccc(Cl)cc3)cc2)ccc2ccccc12 [Example 1, 2-[2-[(4'-chloro[1,1'-biphenvyl]-4-vl)oxy]eyl]-N-hydroxy-1-naphthalenecarboxamide] | 640 nM
6 | COc1ccc(-c2ccc(S(=O)(=O)CCCc3ccc4ccccc4c3C(=O)NO)cc2)cc1 [Example 10, N-hydroxy-2-[3-[(4'-methoxy[1,1'-biphenyl]-4-yl)sulfonyl]propyl]-1-naphthalenecarboxamide] | 400 nM
7 | N#CCc1cccc(-c2ccc(S(=O)(=O)CCOc3ccc4ccccc4c3C(=O)NO)cc2)c1 [Example 13] | 62 nM
8 | COc1ccc(-c2ccc(C(=O)CCCc3ccc4ccccc4c3C(=O)NO)cc2)cc1 [Example 11, N-hydroxy-2-[4-(4'-methoxy[1,1'-biphenyl]-4-yl)-4-oxobutyl]-1-naphthalenecarboxamide] | 1500 nM
9 | O=C(NO)c1c(OCCS(=O)(=O)c2ccc(-c3ccc(Cl)cc3)cc2)ccc2ccccc12 [Example 6, 2-[[2-(4'-chloro[1,1'-biphenyl]-4-yl)sulfonyl]ethoxy]-N-hydroxy-1-naphthalenecarboxamide] | 670 nM
